Laboratory results: patent US12473304B2, “Heterocyclic PAD4 inhibitors” (BRISTOL-MYERS SQUIBB COMPANY, priority 2020, dated 2025)

Target: human PAD4 (hPAD4) (Homo sapiens (Human), UniProt Q9UM07)
Assay: RFMS Human PAD4 Functional Assay 1
Format: biochemical
Details: RFMS assay 1; 5 nM hPAD4, 250 μM BAEE substrate, 50 μM calcium, 37° C.
How it was run: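 Recombinant hPAD4 (5 nM) was preincubated with compound (top 50 μM, 0.5% DMSO) for 30 min at 37 °C, then reacted with 250 μM BAEE for 90 min at 37 °C in pH 7.5 HEPES buffer with 50 μM calcium and 5 μM TPEN. Product was derivatized with phenyl glyoxal and quantified by RapidFire MS.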

Sequence of human PAD4 (hPAD4) (Q9UM07 whole entry): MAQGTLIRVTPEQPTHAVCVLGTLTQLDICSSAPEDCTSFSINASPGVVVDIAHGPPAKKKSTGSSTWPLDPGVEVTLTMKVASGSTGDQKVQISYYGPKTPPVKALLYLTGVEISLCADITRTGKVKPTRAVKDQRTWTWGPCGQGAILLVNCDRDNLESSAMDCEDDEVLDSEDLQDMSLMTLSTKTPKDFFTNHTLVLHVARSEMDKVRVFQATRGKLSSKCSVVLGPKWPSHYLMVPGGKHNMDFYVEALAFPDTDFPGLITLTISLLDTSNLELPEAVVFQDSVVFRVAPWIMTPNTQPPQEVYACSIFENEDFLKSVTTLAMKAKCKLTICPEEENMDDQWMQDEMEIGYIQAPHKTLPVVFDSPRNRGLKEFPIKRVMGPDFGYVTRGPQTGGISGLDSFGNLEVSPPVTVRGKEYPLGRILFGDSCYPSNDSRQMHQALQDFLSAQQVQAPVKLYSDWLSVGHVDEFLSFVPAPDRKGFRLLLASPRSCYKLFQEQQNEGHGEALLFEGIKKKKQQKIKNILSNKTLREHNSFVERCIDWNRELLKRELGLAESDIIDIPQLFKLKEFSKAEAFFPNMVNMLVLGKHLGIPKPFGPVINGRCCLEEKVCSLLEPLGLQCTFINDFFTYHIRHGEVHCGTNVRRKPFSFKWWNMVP

Row | Compound | IC50
1 | CC(=O)N(C)C1CCN(c2ccc3cc(-c4nn5cc(C(=O)N6CCC[C@@H](N)C6)ccc5c4C)n(CC4CC4)c3c2)CC1 [Example 359, N-[1-(2-{6-[(3R)-3-Aminopiperidine-1-carbonyl]-3-methylpyrazolo[1,5-a]pyridin-2-yl}-1-(cyclopropylmethyl)-1H-indol-6-yl)piperidin-4-yl]-N-methyl acetamide] | 240 nM
2 | Cc1c(-c2cc3ccc(N4CCC(N(C)S(C)(=O)=O)CC4)cc3n2CC2CC2)nn2cc(C(=O)N3CCC[C@@H](N)C3)ccc12 [Example 360, N-[1-(2-{6-[(3R)-3-Aminopiperidine-1-carbonyl]-3-methylpyrazolo[1,5-a]pyridin-2-yl}-1-(cyclopropylmethyl)-1H-indol-6-yl)piperidin-4-yl]-N-methylmethanesulfonamide] | 450 nM
3 | Cc1c(-c2cc3ccc(N4CCC(C(=O)N5CCCC5)CC4)cc3n2CC2CC2)nn2cc(C(=O)N3CCC[C@@H](N)C3)ccc12 [Example 361, (3R)-1-{2-[1-(Cyclopropylmethyl)-6-[4-(pyrrolidine-1-carbonyl)piperidin-1-yl]-1H-indol-2-yl]-3-methylpyrazolo[1,5-a]pyridine-6-carbonyl}piperidin-3-amine] | 300 nM
4 | Cc1c(-c2cc3ccc(N4CCC(N(C)S(C)(=O)=O)CC4)cc3n2CC2CC2)nn2cc(C(=O)N3CCC[C@@H](N)C3)ccc12 [Example 362, N-[1-(2-{6-[(3R)-3-Aminopiperidine-1-carbonyl]-3-methylpyrazolo[1,5-a]pyridin-2-yl}-1-(cyclopropylmethyl)-1H-indol-6-yl)piperidin-4-yl]-N-methylmethanesulfonamide] | 430 nM

Other lines, results leading:

Row | IC50 | Compound
5 | 2280 nM | Cc1c(-c2cc3ccc(N4CCC(N5CCCC5=O)CC4)cc3n2CC2CC2)nn2cc(C(=O)N3CCC[C@@H](N)C3)ccc12 [Example 363, 1-[1-(2-{6-[(3R)-3-Aminopiperidine-1-carbonyl]-3-methylpyrazolo[1,5-a]pyridin-2-yl}-1-(cyclopropylmethyl)-1H-indol-6-yl)piperidin-4-yl]pyrrolidin-2-one]
6 | 1090 nM | Cc1c(-c2cc3ccc(N4CCC(N5CCOC5=O)CC4)cc3n2CC2CC2)nn2cc(C(=O)N3CCC[C@@H](N)C3)ccc12 [Example 364, 3-[1-(2-{6-[(3R)-3-Aminopiperidine-1-carbonyl]-3-methylpyrazolo[1,5-a]pyridin-2-yl}-1-(cyclopropylmethyl)-1H-indol-6-yl)piperidin-4-yl]-1,3-oxazolidin-2-one]
7 | 720 nM | Cc1c(-c2cc3ccc(N4CCC(n5cccn5)CC4)cc3n2CC2CC2)nn2cc(C(=O)N3CCC[C@@H](N)C3)ccc12 [Example 365, (3R)-1-{2-[1-(Cyclopropylmethyl)-6-[4-(1H-pyrazol-1-yl)piperidin-1-yl]-1H-indol-2-yl]-3-methylpyrazolo[1,5-a]pyridine-6-carbonyl}piperidin-3-amine]
8 | 870 nM | Cc1c(-c2cc3ccc(N4CC(N(C)S(C)(=O)=O)C4)cc3n2CC2CC2)nn2cc(C(=O)N3CCC[C@@H](N)C3)ccc12 [Example 366, N-[1-(2-{6-[(3R)-3-Aminopiperidine-1-carbonyl]-3-methylpyrazolo[1,5-a]pyridin-2-yl}-1-(cyclopropylmethyl)-1H-indol-6-yl)azetidin-3-yl]-N-methylmethanesulfonamide]
9 | 1000 nM | Cc1c(-c2cc3ccc(-c4cccc(CNS(C)(=O)=O)c4)cc3n2CC2CC2)nn2cc(C(=O)N3C[C@H](N)C[C@@H](F)C3)ccc12 [Example 367, N-{[3-(2-{6-[(3R,5R)-3-Amino-5-fluoropiperidine-1-carbonyl]-3-methylpyrazolo[1,5-a]pyridin-2-yl}-1-(cyclopropylmethyl)-1H-indol-6-yl)phenyl]methyl}methanesulfonamide]
10 | 2800 nM | Cc1c(-c2cc3ccc(-c4cccc(-c5nn[nH]n5)c4)cc3n2CC2CC2)nn2cc(C(=O)N3C[C@H](N)C[C@@H](F)C3)ccc12 [Example 368, (3R,5R)-1-{2-[1-(Cyclopropylmethyl)-6-[3-(2H-1,2,3,4-tetrazol-5-yl)phenyl]-1H-indol-2-yl]-3-methylpyrazolo[1,5-a]pyridine-6-carbonyl}-5-fluoropiperidin-3-amine]
